Data published in patent US9376499B2, “PAR-1 activation by metalloproteinase-1 (MMP-1)” (Tufts Medical Center, Inc., priority 2009, dated 2016).
Non-standard residues stand in square brackets, D forms with d. Residues, ends and D or L forms follow the SMILES beside them. No end group written: not given here. *: point of attachment. 4Abz = Nc1ccc(C(=O)O)cc1; NHOH = ON*

Tests used:
MMP-1 [1] = molecular target: T1, MMP-1 (Cavia porcellus, UniProt H0V812); test: Collagen zymography of arterial clots from FeCl3-injured carotid arteries; type: in vivo, guinea pig
T1 construct: endogenous in cells; host or cells: platelets of Hartley guinea pigs
T1 sequence (H0V812 1-472): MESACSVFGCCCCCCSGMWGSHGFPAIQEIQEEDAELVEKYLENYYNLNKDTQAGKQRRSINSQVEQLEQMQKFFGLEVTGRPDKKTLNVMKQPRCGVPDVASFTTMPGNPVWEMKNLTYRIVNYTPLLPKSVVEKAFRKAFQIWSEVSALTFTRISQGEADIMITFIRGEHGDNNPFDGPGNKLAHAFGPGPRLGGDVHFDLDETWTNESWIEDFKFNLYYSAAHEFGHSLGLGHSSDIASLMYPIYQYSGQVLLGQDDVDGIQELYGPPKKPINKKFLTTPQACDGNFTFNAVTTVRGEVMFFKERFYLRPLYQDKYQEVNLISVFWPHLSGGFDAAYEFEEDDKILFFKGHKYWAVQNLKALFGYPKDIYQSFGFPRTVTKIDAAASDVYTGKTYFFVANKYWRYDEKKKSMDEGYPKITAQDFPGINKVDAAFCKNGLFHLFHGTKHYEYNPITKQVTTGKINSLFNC
Experimental: MMP-1 activity with the dots was determined by collagent zymography (see FIG. 6H). Platelets were isolated from guinea pigs and stimulated with 20 μg/ml collagen for 15 min and platelet supernatants and pellets, or whole resting platelets (control), prepared as described Above. Samples were resolved on a 8% type I collagen/acrylamide zymography gel and collagenase zymogram was developed as described by (Gogly et al., 1998) or immunoblotted with MMP1-Ab, AB806. Arterial dots were also removed from the Fe—Cl irnjured carotid arteries from animals (n=5) treated with FN-439 (FN439 clot) or vehicle (veh dot) as in 6F and 6G and dots were dissolved in lysis buffer and passed 5× through a 21-gauge needle. The lysates were centrifuged and supernatents resolved on the zymography gel. The two lanes on the left side of the western blot have 20 ng of proMMP-1 or 20 ng APMA-activated MMP-1, and the right hand lane in the zymogram has 0.5 μg of APMA-activated human MMP-1.

MMP-1 [2] = molecular target: T2, MMP-1 (Homo sapiens, UniProt P03956); test: Collagenase (active MMP-1) activity of collagen-stimulated human platelets, DQ collagen I fluorogenic substrate; type: biochemical; parameters: endogenous in cells; host or cells: human platelets from healthy donors, stimulated with collagen, ADP or U-46619; settings: 3 μM FN-439 or 20 μg/ml blocking Ab; platelets treated with 20 μg/ml collagen
T2 sequence (P03956 100-469): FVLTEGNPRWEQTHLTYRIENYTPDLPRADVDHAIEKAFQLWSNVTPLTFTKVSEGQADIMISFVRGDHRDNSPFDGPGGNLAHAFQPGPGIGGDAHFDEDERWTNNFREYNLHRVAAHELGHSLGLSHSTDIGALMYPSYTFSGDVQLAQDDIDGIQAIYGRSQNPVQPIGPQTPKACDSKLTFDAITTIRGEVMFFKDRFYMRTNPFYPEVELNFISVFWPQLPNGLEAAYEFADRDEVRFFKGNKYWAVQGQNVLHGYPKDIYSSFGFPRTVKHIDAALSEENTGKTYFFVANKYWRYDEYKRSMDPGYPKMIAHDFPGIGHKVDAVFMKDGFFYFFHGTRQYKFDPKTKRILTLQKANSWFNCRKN
Experimental: The enzymatic activity of active MMP-1 in supernatants and platelet lysates was then determined. Human or guinea pig platelets from PRP were concentrated four-fold by centrifugation at 700 g for 25 min at room temperature, and then resuspended in 0.25 volume of PIPES containing 1 mM EDTA (final platelet count was 10^9/mL). Platelets were treated with PBS (buffer), 20 μM ADP, 20 μM U-46619, or 20 μg/ml collagen in the presence of 2.5 mM CaCl2. The platelets were incubated for 15 min at 37° C. with occasional gentle mixing. Platelets were collected by centrifugation at 10,000 g for 5 min at 4° C. and resuspended in lysis buffer (50 mM Tris HCl, 100 mM NaCl, 1 mM NaF, 5 mM EDTA, 0.1% (v/v) Triton X-100, 100 μM PMSF, pH 7.4) and then sheared with a 27 gauge needle.
The enzymatic activity of active MMP-1 in supernatants and platelet lysates was measured using DQ collagen I (Molecular Probes) as fluorogenic substrate and reporter of collagenase activity substrate (Boire et al., 2005) in the presence or absence of 3 μM FN-439, or 20 μg/ml each of control IgG, MMP-1 blocking Ab, MMP-8 blocking Ab or MMP-13 blocking Ab (preincubated for 2 h at 37° C.), as indicated with APMA-activated MMP-1 serving as control (FIG. 1A, striped bars). […]

platelets = test: Collagen-dependent aggregation of gel-filtered human platelets (light transmittance); type: cell-based; settings: 5 μg/ml collagen; 1,10-PA 100 μM, MMP-200 200 nM, FN-439 3 μM, RWJ-56110 1 μM, PAR1 Ab 75 μg/ml, pepducins 3 μM, PPACK 200 μM, hirudin 1 U/ml
Experimental: Platelet pellets and their supernatants were prepared as follows. […] following established informed consent procedures. […] Alternatively, whole blood was obtained from Hartley Sprague guinea pigs (drawn from the vena cava) into 3% citrate plus 10 U/ml heparin. Washed platelets from the guinea pigs were prepared in PIPES buffer. Platelet aggregation was measured with a Chronolog 560VS/490-2D aggregometer using modified PIPES buffer as a blank. Samples were incubated for 5 min in the presence of inhibitors and 1.8 mM CaCl2 prior to addition of agonist. All reactions were in final volumes of 250 μl at 37° C. while stirring at 900 rpm.
The effect of pharmacologic blockage of metalloproteases or PAR1 on collagen-dependent platelet aggregation was then tested (see FIG. 5). Gel-filtered platelets from healthy individuals (supplemented with 0.3 mg/ml fibrinogen) were challenged with 5 μg/ml collagen in the presence or absence (0.2% DMSO vehicle) of the indicated inhibitors and allowed to stir at 900 rpm in an aggregometer cuvette (250 μL) at 37° C.
In FIG. 5A, platelet aggregation was monitored by light transmittance.

Compound | active MMP-1 in arterial thrombi of treated animals (MMP-1 [1]) | inhibition of platelet collagenase activity released by collagen (cleavage of fluorogenic collagen substrate) (MMP-1 [2]) | inhibition (loss) of collagen-induced platelet aggregation (platelets)
CC(C)C[C@@H](NC(=O)[C@@H]1CCCN1C(=O)CNC(=O)c1ccc(N)cc1)C(=O)N[C@H](C)C(=O)NO [FN-439] (H-[4Abz]GP[dL][dA]-{NHOH}) | did not contain active MMP-1 | completely blocked | –
P1pal-7: PAR1 i3 loop pepducin lipopeptide, KKSRALF (SEQ ID NO. 2), palmitate (also: palmitate, site not given here) | – | – | identical levels of inhibition as blocking MMP-1
